# Legend:
# BJeLR cells = assay: Erastin-induced death and ROS production in BJeLR cells; format: cell-based, human; conditions: erastin 10 μM, 6-AN 200 μM
# Experimental: The day before the experiment, 200,000 cells/well were seeded in 6-well dishes (Corning Inc., Corning, N.Y.). The day of the experiment, cells were treated with test compounds for the indicated times, then harvested by trypsinization, resuspended in 500 μL Hanks Balanced Salt Solution (HBSS, Gibco, Invitrogen Corp., Carlsbad, Calif.) containing either H2DCFDA (25 μM), C11-BODIPY(581/591) (2 μM) or MitoSOX (5 μM) (all from Molecular Probes, Invitrogen) and incubated for 10 minutes at 37° C. in a tissue culture incubator. Cells were then resuspended in 500 μL of fresh HBSS, strained through a […] cell strainer (BD Falcon, BD Biosciences, San Jose, Calif.), and analyzed using a flow cytometer (FACSCalibur or Accuri C6, BD Biosciences), which was equipped with 488-nm laser for excitation. Data was collected from the FL1 (H2DCFDA, C11-BODIPY) or FL2 channel (MitoSOX). A minimum of 10,000 cells were analyzed per condition.
# (§1) Cell viability was typically assessed in 384-well format by Alamar Blue (Invitrogen) fluorescence (ex/em 530/590) measured on a Victor3 platereader (Perkin Elmer, Waltham, Mass.). In some experiments, Trypan Blue dye exclusion counting was performed using an automated cell counter (ViCell, Beckman-Coulter Inc., Brea, Calif.). Cell viability in test conditions is reported as a percentage relative to the negative control treatment.
# Calu-1 cells = assay: Erastin-induced ferroptosis in Calu-1 cells with NOX pathway inhibitors; format: cell-based, human
# Experimental: as §1
# [1] = test system: rat organotypic hippocampal slice culture (OHSC); assay: Glutamate-induced excitotoxic cell death in organotypic hippocampal slice cultures (PI uptake); format: cell-based; conditions: 5 mM L-glutamate 3 hours; 24 hours after; DG, CA1, CA3; Fer-1 2 μM, CPX 5 μM, MK-801 10 μM
# Experimental: OHSCs were cultured as previously described (Morrison et al., 2002) with approval from Columbia University's Institutional Animal Care and Use Committee (IACUC). Briefly, Sprague Dawley rat pups (P8-P10) were rapidly decapitated, and the hippocampus placed in ice-cold Gey's balanced salt solution (Sigma). 400 μm thick sections were cut using a Mcllwain tissue chopper and immediately plated on Millicell cell culture inserts (Millipore, Billerica, Mass.) in Neurobasal (Invitrogen) media supplemented with B27 (1×, Invitrogen), GlutaMAX (1 mM, Invitrogen), and D-glucose (4.5 mg/mL, Sigma) at 37° C. and 5% CO2. After 2 days in vitro (DIV), the media was changed to medium containing serum comprised of 50% DMEM (Sigma), 25% heat-inactivated horse serum (Sigma), 25% Hank's balanced salt solution (Sigma), GlutaMAX (1 mM, Invitrogen), and D-glucose (4.5 mg/mL, Sigma). Medium was changed every 2-3 days.
# After 10-14 DIV, OBSCs were exposed to an excitotoxic injury consisting of a 3 hour exposure to 5 mM L-glutamate in SFM (Morrison et al., 2002). Only healthy OHSCs defined as those with less than 5% cell death in all regions of the hippocampus (DG, CA3, CA1) pre-injury were used for experiments. After the 3 hour exposure, the cultures were placed in fresh serum free media (SFM) containing 75% DMEM, 25% Hank's balanced salt solution, GlutaMAX (1 mM), D-glucose (4.5 mg/mL) until cell death was quantified at 24 hours. If drugs were added, they were added at the same time as glutamate.
# Quantification of cell death has been described previously (Cater et al., 2007; Morrison et al., 2002). Brightfield images of the hippocampal cultures were taken before injury for identification of regions of interest (ROI) including the dentate gyrus (DG), CA3 and CA1. Propidium iodide (PI, Invitrogen) was used as a fluorescent signal for cell death, and images were taken before the induction of injury and 24 hours following injury. […] Percentage cell death was expressed as the number of pixels in the ROI above a threshold in the PI fluorescent image divided by the total number of pixels in the ROI.
# [2] = test system: SLC7A11 mRNA in HT-1080 cells; assay: SLC7A11 mRNA levels by RT-qPCR; format: cell-based, human
# Experimental: RNA was extracted using the Qiashredder and Qiagen RNeasy Mini kits (Qiagen) according to the manufacturer's protocol. 2 μg total RNA for each sample was used as input for each reverse transcription reaction, performed using the TaqMan RT kit (Applied Biosystems, Life Technologies Corp., Carlsbad, Calif.). Primer pairs were designed for target transcripts using Primer Express 2.0 (Applied Biosystems). Quantitative PCR reactions were performed using the Power SYBR Green PCR Master Mix (Applied Biosystems). Triplicate samples per condition were analyzed on an Applied Biosystems 7300 qPCR instrument using absolute quantification settings. Differences in mRNA levels compared to HPRT1 or ACTB internal reference control were computed between control and experimental conditions using the ΔΔCt method.
# HT-1080 cells = assay: Erastin-induced death in HT-1080 cells with co-treated inhibitors (viability, microscopy); format: cell-based, human; conditions: HT-1080 cells
# Experimental: as §1
# Phase contrast images were acquired using an AMG EVOS FL (Advanced Microscopy Group) microscope equipped with a 10× phase-contrast objective. Three independent fields were acquired for each experimental condition. Representative samples from one field of view are shown.
# BJeLR and HT-1080 cells = assay: Measurement of ATP levels; format: cell-based, human; conditions: normalized to viability
# Experimental: ATP levels were evaluated using the ApoSENSOR ATP Assay Kit (Biovision Inc., Milpitas, Calif.) according to the manufacturer's instructions. 2000 HT-1080 or BJeLR cells were seeded in 96-well white bottom plates (Falcon). Cells were treated 12 hours later with compound as above for the TEM. Prior to luminescence measurement, medium was removed and cells were lysed and incubated with ATP Monitoring Enzyme. Luminescence was measured using a Victor3 platereader equipped with an infrared emission filter every 30 seconds for 10 minutes. Typically the first reading was used for data analysis. Parallel cell culture treatments were performed in 96-well clear bottom plates and cell viability was determined using Alamar Blue. These values were used to normalize ATP levels to cell viability.
# [3] = 2,2-diphenyl-1-picrylhydrazyl (DPPH) assay, cell-free antioxidant potential; conditions: test compound 0.05 mM, absorbance at 517 nm
# Experimental: The stable radical DPPH (Blois, 1958) was dissolved in methanol to a final concentration of 0.05 mM. 1 mL of DPPH solution was added to 2 μL of each test compound dissolved in DMSO. The final concentration of each test compound was 0.05 mM. Samples were inverted several times and allowed to incubate at room temperature for 10 minutes. Samples were then aliquoted to white 96-well solid-bottom dishes (Corning) and absorbance at 517 nm was recorded using a TECAN M200 plate reader. All values were normalized to background (methanol only). The experiment was repeated twice. Results within each trial normalized to DMSO (=1.0), then averaged across trials.
# [4] = test system: erastin (10 μM)-treated HT-1080 cells; assay: Inhibition of death in erastin (10 μM)-treated HT-1080 cells, viability by Alamar Blue; format: cell-based, human
# Experimental: as §1
# Flow cytometry data was analyzed using FloJo (9.3.2, Tree Star, Inc., Ashland, Oreg.). Chemical structures were drawn using ChemDraw Ultra (Cambridgesoft, Cambridge, Mass.). Computational determination of log P (Slog P function) was performed using MOE 2010.10 (Chemical Computing Group, Montreal, […].). Viability data was analyzed using Excel (Microsoft Corp., […].). Summary data and heatmaps were generated using R. Dose-response curves were computed by 4-parameter logistic regression in Prism 5.0c (GraphPad Software). Images were manipulated using Photoshop CS4 and Illustrator CS4 (Adobe, San Jose, Calif.).
# The ability of various compounds disclosed herein to inhibit death in erastin (10 μM)-treated HT-1080 cells were tested. Cell viability was assessed by Alamar Blue. EC50 values (nM) were computed from dose response curves.
# system xc− = target: T1, system xc− (Homo sapiens, UniProt Q9UPY5); assay: [14C]cystine uptake assay (Na+-independent); format: cell-based; conditions: HT-1080 cells; erastin 10 μM, glutamate 50 mM, SAS 1 mM
# T1 construct: endogenous in cells; host or cells: HT-1080 (American Type Culture Collection)
# T1 sequence (Q9UPY5 1-501): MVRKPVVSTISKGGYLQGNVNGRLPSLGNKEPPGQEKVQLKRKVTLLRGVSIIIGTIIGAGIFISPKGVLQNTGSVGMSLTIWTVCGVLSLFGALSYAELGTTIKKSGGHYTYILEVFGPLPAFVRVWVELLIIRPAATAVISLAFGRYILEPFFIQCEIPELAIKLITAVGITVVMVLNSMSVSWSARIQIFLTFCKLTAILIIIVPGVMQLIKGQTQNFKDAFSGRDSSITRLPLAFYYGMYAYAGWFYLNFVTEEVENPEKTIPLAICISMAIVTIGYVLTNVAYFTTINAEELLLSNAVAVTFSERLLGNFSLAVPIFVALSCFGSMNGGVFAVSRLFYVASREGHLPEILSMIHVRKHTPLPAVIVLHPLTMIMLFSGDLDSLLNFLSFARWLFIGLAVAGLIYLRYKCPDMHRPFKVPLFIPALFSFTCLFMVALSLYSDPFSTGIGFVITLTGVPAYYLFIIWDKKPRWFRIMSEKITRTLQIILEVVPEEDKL
# T1 sequence (P08195 1-529 partner): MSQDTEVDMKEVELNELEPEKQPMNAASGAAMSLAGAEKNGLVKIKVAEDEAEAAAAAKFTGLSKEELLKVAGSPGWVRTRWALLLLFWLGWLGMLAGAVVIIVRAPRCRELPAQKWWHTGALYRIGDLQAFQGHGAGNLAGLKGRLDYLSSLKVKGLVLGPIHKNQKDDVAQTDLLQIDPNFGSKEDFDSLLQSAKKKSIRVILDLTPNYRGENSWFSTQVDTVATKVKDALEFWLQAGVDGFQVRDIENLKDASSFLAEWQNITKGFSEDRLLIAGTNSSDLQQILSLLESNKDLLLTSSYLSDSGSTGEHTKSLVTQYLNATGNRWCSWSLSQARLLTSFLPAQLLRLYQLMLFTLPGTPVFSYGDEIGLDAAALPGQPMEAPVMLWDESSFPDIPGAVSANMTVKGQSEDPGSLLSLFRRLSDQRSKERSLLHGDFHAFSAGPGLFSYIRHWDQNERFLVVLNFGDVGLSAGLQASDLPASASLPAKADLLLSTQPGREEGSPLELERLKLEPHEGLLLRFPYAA
# Experimental: 200,000 HT-1080 cells/well were seeded overnight in 6-well dishes (Corning). […] At this point, in each well the buffer was replaced with 600 μL uptake buffer containing compound and 0.12 μCi (80-110 mCi/mmol) of L-[3,3′-^14C]-cystine (Perkin Elmer) and incubated for 3 minutes at 37° C. Cells were then washed three times with ice-cold uptake buffer and lysed in 500 μL 0.1 M NaOH. To this lysate was added 15 mL of scintillation fluid and radioactive counts per minute were obtained using a scintillation counter. All measurements were performed in triplicate for each condition.
smiles,measurement,setting,value
"NC(=O)c1ccc(N)nc1 [6-AN, 6-aminonicotinamde]",cell death and ROS production in erastin-treated BJeLR,BJeLR cells,prevented cell death as well as ROS production
same,suppression of erastin-induced ferroptosis in Calu-1,Calu-1 cells,strongly suppressed
"c1ccc2c(c1)[I+]c1ccccc1-2 [DPI, diphenylene iodonium]",suppression of erastin-induced ferroptosis in Calu-1,Calu-1 cells,strongly suppressed
"Cc1cc(C2CCCCC2)n(O)c(=O)c1 [CPX, ciclopirox olamine]",glutamate-induced cell death (PI uptake),[1],attenuated significantly and to an almost identical extent
C[C@]12N[C@H](Cc3ccccc31)c1ccccc12 [MK-801],glutamate-induced cell death (PI uptake),[1],attenuated significantly and to an almost identical extent
CN(C)c1cccc(-c2c3c(=O)n(-c4ccccc4Cl)[nH]c3cc(=O)n2C)c1 [GKT137831],suppression of erastin-induced ferroptosis in Calu-1,Calu-1 cells,strongly suppressed
"OCCS [β-ME, β-mercaptoethanol, reference compound]",effect on erastin/SAS-induced SLC7A11 upregulation,[2],suppressed
same,"inhibition of cell death induced by erastin, SAS and glutamate",HT-1080 cells,strongly inhibited cell death
OO [H2O2],intracellular ATP,BJeLR and HT-1080 cells,substantial depletion of intracellular ATP
"CCOC(=O)c1ccc(NC2CC2)c(N)c1 [SRS8-72, ethyl 3-amino-4-(cyclopropylamino)benzoate]",intrinsic antioxidant capability (DPPH),[3],retained equivalent intrinsic antioxidant capability
same,EC50,"[4]; Homo sapiens, HT-1080, inhibition of death in erastin (10 μM)-treated HT-1080 cells, Alamar Blue, from dose response curves",880 nM
same,ability to prevent erastin-induced death,"[4]; erastin 10 μM, HT-1080 cells",an order of magnitude less potent than Fer-1
"O=C(O)c1cc(/N=N/c2ccc(S(=O)(=O)Nc3ccccn3)cc2)ccc1O [SAS, sulfasalazine]",Na+-independent uptake of [14C]cystine,system xc−,abolished
N[C@@H](CCC(=O)O)C(=O)O [glutamate],Na+-independent uptake of [14C]cystine,system xc−,abolished
COC(=O)c1ccc([C@@H]2c3[nH]c4ccccc4c3C[C@@H](C(=O)OC)N2C(=O)CCl)cc1 [RSL3],Na+-independent uptake of [14C]cystine,system xc−,had no effect

# Reference: US9580398B2, “Compounds, compositions, and methods for modulating ferroptosis and treating excitotoxic disorders” (The Trustees of Columbia University in the City of New York, priority 2012, dated 2017)
